Laboratory results as given in article PMC10933169, “Potent anticancer activity of (Z)-3-hexenyl-β-D-glucopyranoside in pancreatic cancer cells” (Naunyn-Schmiedeberg's Archives of Pharmacology, 2023).
Where “and” joins values, the source holds several entries; their conditions need not be identical. Equal entries are not always repeated.

Tests used:
Assay type in all cases: cell-based
[1] = system: Bax gene expression in Panc1 cells; assay: SYBR Green RT-PCR gene expression, Bax; conditions: 48 h, (Z)-3-hexenyl-β-D-glucopyranoside at 10 µM, control 1.436
Description: (§1) The effects of 10 µM of (Z)-3-hexenyl-β-D-glucopyranoside on the mRNA expression of caspase3, bax, and Bcl-2 genes were investigated using the reverse transcription-polymerase […] technique. After a 48-hour incubation of (Z)-3-hexenyl-β-D-glucopyranoside in Panc1 (pancreatic carcinoma) cells, mRNA isolation of the selected proteins was performed using the RN easy extraction kit (Qiagen, Hilden, Germany), following previously described methods (Janicke et al. [1998]). For real-time quantitative PCR of the RNA templates, a one-step RT-PCR kit with SYBR® Green (Bio-Rad SYBR Green PCR MMX, Hercules, California, USA) was added to a 25 μL 2X SYBR® Green RT-PCR reaction mix (Bio-Rad, Hercules, California, USA). The reaction mix contained 2X reaction buffer with 0.4 mM of each dNTP, magnesium chloride, iTaq DNA polymerase, 20 nM fluorescein SYBR® Green I dye, stabilizers, 11 μL nuclease-free water, 1.5 μL reverse primer (10 μM), 1.5 μL forward primer (10 μM), 1 μL iScript reverse transcriptase, and RNA template (1 pg to 100 ng total RNA). The cDNA synthesis and PCR amplifications were performed in the same tube using Rotor-Gene RT-PCR (Qiagen, Hilden, Germany) software 1.7 (Abed et al. [2021]). The primers used in the RT-PCR reaction were obtained from Corbett Life Science Division (Reg. No. QEC21313), Corbett Research, Mortlake, Australia. […]

Panc1 cells [2] = assay: Annexin V-FITC cellular apoptotic assay; conditions: 10 µM, 48 h
Description: The reagents used in this assay included the Annexin V-FITC kit (Abcam Technology, Boston, MA, USA), 1X binding buffer (Abcam Technology, Boston, MA, USA), and propidium iodide (Bio Vision Research Products, Mountain View, CA, USA). Panc1 cells were seeded in 6-well plates and incubated at 37 °C for 24 hours. Compound 1 ((Z)-3-hexenyl-β-D-glucopyranoside) was then added to the cultivated Panc1 6-well plates at a concentration of 10 µM and incubated for 48 hours. Subsequently, the cancer cells were trypsinized and centrifuged for 10 minutes at 300 rpm. The resulting precipitate was resuspended in 500 µL of 1X binding buffer. Annexin V-FITC (5 µL) and propidium iodide (5 µL) reagents were added to the treated cancer cell plates and incubated for 5 minutes in the dark at room temperature. A flow cytometer (Novocyte, Agilent technology, Santa Clara, CA, USA) with an excitation maximum of 488 nm and an emission maximum of 530 nm was employed to measure the intensity of annexin-binding phosphatidylserine (PS) and consequently determine the amount of apoptotic cells (Koopman et al. [1994]).

[3] = system: HepG2 (hepatocellular carcinoma) cells; assay: MTT cytotoxicity assay, HepG2; conditions: Homo sapiens, 48 h treatment
Description: (§2) The cell lines PANC-1 (pancreatic carcinoma), MCF7 (breast carcinoma), HepG2 (hepatocellular carcinoma), and WI-38 (normal lung fibroblast cells) were obtained from the American Type Culture Collection (ATCC) located in Manassas, Virginia, United States. These cell lines were cultured in DMEM (Invitrogen, Life Technologies, Rockville, MD, USA) medium supplemented with 10% FBS (Fetal Bovine Serum, Hyclone, Thermo Fisher Scientific, Waltham, MA, USA) and 1% penicillin (Sigma-Aldrich, Louis, MO, USA). The cells were maintained at 37°C in a 5% CO2 and 95% humidity environment for a maximum period of two weeks to ensure their viability for further experimentation. […]
(§3) The cultivated cells were seeded in 96-well plates at a concentration of 1 × 10^4 cells/100 μL per well (Naik et al. [2014]). […] The viability of the cancer cells was determined by measuring the amount of formazan formed by viable cells. […] The intensity of the produced colour was measured using an ELISA plate reader (Bio-Tek EL 800, Agilent technology, Santa Clara, CA, USA) at wavelength of 570 nm. The percent of cells viability was calculated by the following equation: %viability=AA570oftreated-AA570ofblank/AA570ofcontrol-AA570ofblank×100
(§4) AA Average of triplicate absorbances for each sample concentration

[4] = system: MCF7 (breast carcinoma) cells; assay: MTT cytotoxicity assay, MCF7; conditions: Homo sapiens, 48 h treatment
Description: as §2, §3, §4

[5] = system: Casp3 gene expression in Panc1 cells; assay: SYBR Green RT-PCR gene expression, caspase3; conditions: 48 h, (Z)-3-hexenyl-β-D-glucopyranoside at 10 µM, control 1
Description: as §1

Panc1 cells [6] = assay: Flow cytometry analysis of cell DNA contents / cell cycle (propidium iodide); conditions: 10 µM
Description: All reagents and kits for this assay were obtained from Abcam (Abcam Technology, Boston, MA, USA). The detection of DNA cell contents and cell cycle status was conducted following the established method (Xu et al. [2001]). To provide a brief overview, Panc1 pancreatic cancer cells (ATCC, Manassas, Virginia, USA) were cultured in a single-cell suspension in DMEM medium (Invitrogen, Life Technologies, Rockville, MD, USA). Subsequently, the cells were fixed in 66% ethanol (Sigma-Aldrich, Louis, MO, USA) and kept on ice for 2 hours. Afterward, the cancer cells were washed with a PBS (Sigma-Aldrich, Louis, MO, USA) solution (5 mL of 10X PBS + 45 mL water), re-cultured in fresh medium, and incubated at 37 °C for 24 hours. A concentration of 10 µM of (Z)-3-hexenyl-β-D-glucopyranoside was added in triplicate, chosen based on previously reported data (Ponnusamy et al. [2016]; Xu et al. [2001]) for 24h. The second dose of 10 µM of (Z)-3-hexenyl-β-D-glucopyranoside was added to the Panc1 cells then incubated for 24 h. Following a 48-hour incubation period from the first dose, the cells were trypsinized, fixed, and stained with propidium iodide-RNase enzyme reagent (9.45 mL PBS + 500 μL 20X propidium iodide + 50 μL 200X RNase) from Abcam Technology, Boston, MA, USA. […] The incubation time for fluorescence quantification was 30 minutes. The experiment was repeated twice.

[7] = system: Bcl-2 gene expression in Panc1 cells; assay: SYBR Green RT-PCR gene expression, Bcl-2; conditions: 48 h, (Z)-3-hexenyl-β-D-glucopyranoside at 10 µM, control 1
Description: as §1

[8] = system: WI-38 (normal lung fibroblast cells); assay: MTT cytotoxicity assay, WI-38 normal cells; conditions: 48 h treatment, read-out: Cytotoxicity IC50 WI38
Description: as §2, §3, §4

[9] = MTT cytotoxicity assay, WI-38 normal cells; conditions: human, WI-38 normal lung fibroblast cells, 48 h treatment, read-out: Cytotoxicity IC50 WI38
Description: as §2, §3, §4

[10] = system: Panc1 (pancreatic carcinoma) cells; assay: MTT cytotoxicity assay, Panc1; conditions: Homo sapiens, PANC-1, 48 h treatment
Description: The cell lines PANC-1 (pancreatic carcinoma), MCF7 (breast carcinoma), HepG2 (hepatocellular carcinoma), and WI-38 (normal lung fibroblast cells) were obtained from the American Type Culture Collection (ATCC) located in Manassas, Virginia, United States. These cell lines were cultured in DMEM (Invitrogen, Life Technologies, Rockville, MD, USA) medium supplemented with 10% FBS (Fetal Bovine Serum, Hyclone, Thermo Fisher Scientific, Waltham, MA, USA) and 1% penicillin (Sigma-Aldrich, Louis, MO, USA). The cells were maintained at 37°C in a 5% CO2 and 95% humidity environment for a maximum period of two weeks to ensure their viability for further experimentation. Cell detachment was achieved using a solution containing 0.25% (w/v) trypsin (Sigma-Aldrich, Louis, MO, USA) and 0.53 mM EDTA ((Sigma-Aldrich, Louis, MO, USA), followed by re-cultivation in fresh media.
The cultivated cells were seeded in 96-well plates at a concentration of 1 × 10^4 cells/100 μL per well (Naik et al. [2014]). The cultured plates were then incubated for 24 hours at 37°C. […] The tested concentrations of the compounds (1, 10, 30, and 100 µg/mL) in 0.01 - 0.1% DMSO in ddH2O were prepared by diluting the stock solutions with double-distilled water (ddH2O). […] A negative control using 0.1% DMSO in ddH2O was also included. The treated cells were further incubated for 48 hours at 37 °C. The media of the treated and control plates were removed and replaced by fresh media containing MTT (Sigma, Louis, MO, USA) reagent in a concentration of 1 mg/mL (Ponnusamy et al. [2016]), then incubated for 2 hours. The viability of the cancer cells was determined by measuring the amount of formazan formed by viable cells. […] The intensity of the produced colour was measured using an ELISA plate reader (Bio-Tek EL 800, Agilent technology, Santa Clara, CA, USA) at wavelength of 570 nm. The percent of cells viability was calculated by the following equation: %viability=AA570oftreated-AA570ofblank/AA570ofcontrol-AA570ofblank×100
as §4

Row | Compound | RT-PCR results fold change Bax [1] | Necrosis (Panc1 cells [2]) | Apoptosis Late (Panc1 cells [2]; control 0.28%) | Apoptosis Early (Panc1 cells [2]; control 0.47%) | Apoptosis Total (Panc1 cells [2]; control 1.86%) | IC50 [3] | IC50 [4] | RT-PCR results fold change Casp3 [5] | Cell cycle effect (Comment) (Panc1 cells [6]) | DNA content %G2/M (Panc1 cells [6]; control 10.47) | DNA content %S (Panc1 cells [6]; control 32.11) | DNA content %G0-G1 (Panc1 cells [6]; control 57.42) | Cell cycle effect (Comment) (Panc1 cells [6]; listed as E-W-4) | RT-PCR results fold change Bcl-2 [7] | IC50 [8] | IC50 at 48 h [9] | IC50 [10]
1 | CCC=CCCOC1OC(CO)C(O)C(O)C1O [Compound 1, (Z)-3-hexenyl-β-D-glucopyranoside] | 3.173 fold | 5.52% | 9.85% | 26.15% | 42% and 41.52% | 45.8 µM | 109 µM | 4.064 fold | cell growth arrest at the S phase | 3.38% | 44.01% | 52.61% | Cell growth arrest@ S phase | 0.231 fold | 195 µM | 194 µM | 7.6 µM
2 | Oc1cccc(O)c1O [Pyrogallol] | – | – | – | – | – | – | – | – | – | – | – | – | – | – | – | – | 198 µM
3 | O=C(O)c1cc(O)c(O)c(O)c1 [Gallic acid] | – | – | – | – | – | – | – | – | – | – | – | – | – | – | – | – | 21.8 µM
